The values that follow come from patent publication US11938098B2, “Method for killing HIV-infected cells using Bcl-2 inhibitors” (Mayo Foundation for Medical Education and Research, priority 2015, dated 2024).

One data set concerns Jurkat T cells. The data set is described as follows: TUNEL cell death in Jurkat T cells transfected with EGFP-Casp8p41, vector control or no DNA. It counts as cell-based. To be noted: Jurkat cells expressing eGFP-Casp8p41, 1 μM. The procedure:
HEK 293T cells were transfected using Lipofectamine (Invitrogen, Carlsbad, Calif.) according to manufacturer's protocol. Jurkat cells were transfected using a square wave electroporator (BXT, San Diego, Calif.) at 320 V. Immunophenotyping of T cell subsets was performed using multicolor flow cytometry with monoclonal antibodies to human CD3 (Alexa700, BD Pharmingen), CD4 (FITC, BD Pharmingen), CD8 (Pacific Blue, BD Pharmingen), CD27 (PE, BD Pharmingen), and CD45RO (ECD, Beckman Coulter). Central memory T cells (TCM) were defined as CD3^+CD4^+CD27^+CD45RO^+, and effector memory T cells (TEM) were defined as CD3^+CD4^+CD27^−CD45RO^+/− (Brenchley et al., J. Exp. Med., 200:749-759 (2004)). Intracellular expression of Casp8p41 was assessed as described elsewhere (Cummins et al., AIDS Res. Hum. Retroviruses, 30:476-479 (2014)). Cell death was measured using LIVE/DEAD® Fixable Aqua dead cell stain (Invitrogen) or TUNEL (Roche) according to manufacturers' protocols. Cell proliferation was measured using a CellTrace™ CFSE Cell Proliferation Kit (Life Technologies) according to manufacturer's protocol. FACS analysis was performed on either a FACScan or LSRII flow cytometer (BD Biosciences) based on multiparameter needs. FACS data were analyzed using FlowJo software (Tree Star Inc).

For data set [1], the system named is Primary CD4 T cells from uninfected donors. The data set is described as follows: Viability of primary uninfected CD4 T cells by flow cytometry. The data set is classed as cell-based, human. To be noted: N=7, 1 μM, Day 5. The text has this: (§1) Jurkat cells and HEK 293T cells were obtained from American Type Culture Collection (Manassas, Va.). Jurkat/Bcl-2 cells were created by transfecting Jurkat with a pcDNA-3 encoding Bcl-2 (obtained from Dr. Stan Korsmeyer), selecting for 30 days, and assessing Bcl-2 expression by immunoblotting. HIV-uninfected PBMCs were harvested by ficoll gradient centrifugation from Leukocyte Reduction System apheresis chambers provided by healthy volunteer blood donors. […]
(§2) Immunophenotyping of T cell subsets was performed using multicolor flow cytometry with monoclonal antibodies to human CD3 (Alexa700, BD Pharmingen), CD4 (FITC, BD Pharmingen), CD8 (Pacific Blue, BD Pharmingen), CD27 (PE, BD Pharmingen), and CD45RO (ECD, Beckman Coulter). […] Intracellular expression of Casp8p41 was assessed as described elsewhere (Cummins et al., AIDS Res. Hum. Retroviruses, 30:476-479 (2014)). Cell death was measured using LIVE/DEAD® Fixable Aqua dead cell stain (Invitrogen) or TUNEL (Roche) according to manufacturers' protocols. Cell proliferation was measured using a CellTrace™ CFSE Cell Proliferation Kit (Life Technologies) according to manufacturer's protocol. […] FACS data were analyzed using FlowJo software (Tree Star Inc).
In general terms: A flow cytometer gives signals particle by particle.

Data set [2] shares this test system. Briefly: Mitogen-induced proliferation of uninfected CD4 T cells by CFSE staining. The data set is classed as cell-based, human. The settings on record: phytohemagglutinin, 1 μM, Day 3.
From the text: as §1, §2

The test system of data set [3] is Primary CD4 T cells from ART-suppressed HIV positive patients. The data set is described as follows: Viability by trypan blue exclusion of CD4 T cells from ART-suppressed HIV positive patients. The data set is classed as cell-based, human. To be noted: bulk primary CD4 T cells from HIV infected ART suppressed patients; 1 μM; 24 hours. The method, then: FIGS. 11A-11D. […] FIG. 11A, Jurkat T cells pretreated with increasing concentrations of venetoclax or diluent DMSO were transfected with EGFP-Casp8p41, vector control, or no DNA, and assayed for cell death by TUNEL. Data are representative of three independent experiments. FIG. 11B, Primary CD4 T cells from seven uninfected donors were treated with venetoclax (1 μM) or diluent, and assayed for cell viability by flow cytometry over 5 days. FIG. 11C, Primary CD4 T cells from four uninfected donors were stimulated with phytohemagglutinin (2 μg/mL) in the presence of venetoclax (1 μM) or diluent and assayed for proliferation by CFSE staining. FIG. 11D, Primary CD4 T cells from seven ART-suppressed HIV positive patients were treated with venetoclax (1 μM) or DMSO control for 24 hours and assessed for viability by trypan blue exclusion.

The test system of another data set is HIV-1IIIb. Briefly: Acute HIVIIIb infection of primary CD4 T cells in vitro (viability, p24, cell associated HIV DNA). The data set is classed as cell-based.
From the text: as §1
as §2, with “Inc). […]” for “Inc).”

Data set [4] relates to latently HIV infected CD4 T cells. The data set is described as follows: Ex vivo HIV reactivation (αCD3/αCD28) in CD4 T cells from suppressed HIV-infected patients. The data set is classed as cell-based, human. The procedure: FIGS. 10A-10E. Selective Bcl-2 inhibition reduces HIV DNA associated with cells after viral reactivation ex vivo. […] After 72 hours, cell associated HIV DNA was measured. FIG. 10B, Freshly obtained peripheral CD4 T cells from an additional 16 suppressed HIV-infected patients were treated with ABT-199 or DMSO followed by αCD3/αCD28 for 72 hours before cell associated HIV DNA was measured. Depicted is the ratio of HIV DNA in ABT-199 treated vs. diluent treated samples for each patient with measurable HIV DNA in the diluent sample (n=11). FIG. 10C, Primary CD4 T cells from HIV-infected subjects were treated with ABT-199 or diluent and assayed for intracellular Casp8p41 and active caspase 3 in the TCM subset. Representative data of three independent subjects. FIG. 10D, Primary CD4 T cells from four HIV-infected subjects were treated with venetoclax or diluent and induced to reactivate HIV using CD3/CD28, and cell death measured in HIV P24 positive or negative cells using activated caspase 3 staining. FIG. 10E, HIV RNA was measured in cell culture supernatant from 6 of the 11 patient experiments from FIG. 10B.
Jurkat and Jurkat/Bcl-2 cells were infected overnight, while primary PHA-activated CD4 T cells were infected for 6 hours with HIV-1IIIb (NIH AIDS Reagent Program). Aliquots of the same infectious supernatant were used for all experiments. Cells were then washed three times and incubated in fresh medium. At the indicated time points, HIV-1 p24 in the cell culture supernatant was measured by RETROTEK™ ELISA kits (Zeptometrix Corporation) according to manufacturer's protocol. […] Briefly, total DNA was extracted using the Qiagen DNeasy Blood and Tissue kit (Hilden, Germany) and analyzed by a real-time polymerase chain reaction (PCR) assay specific for HIV-LTR and β-globin. […] Total HIV-1 DNA was compared and normalized with genomic DNA, determined by β-globin. HIV-1 proviral DNA levels were expressed as HIV-1 copies/β-globin genomic equivalent of 10^6 cells.

For data set [5] the following is noted: in vivo; cited from earlier work.
The conditions of data set [6]: cited from earlier work.
For another data set, the system named is Bcl-2. Briefly: SPR binding of Casp8p41 to purified recombinant Bcl-2. To be noted: Bcl-2 Arg146Ala vs Bcl-2, SPR. The method, then: After plasmids encoding GST tagged proteins were transformed into E. coli BL21 or DH5α by heat shock, bacteria were grown to an optical density of 0.8 and induced with 1 mM IPTG for 3 hours at 37° C. Bacteria were disrupted by freezing and thawing in calcium- and magnesium-free Dulbecco's phosphate buffered saline (PBS) containing 0.1% Triton X-100, 2 μg/mL aprotinin, 10 μg/mL leupeptin, 2 μg/mL pepstatin, and 1 mM PMSF, then sonicated three times for 15 sec/min on ice. GST-tagged proteins were purified with glutathione-agarose (Thermo Fisher Scientific, Rockford, Ill.).
Proteins for SPR were further purified by FPLC on Superdex 5200, concentrated in a centrifugal concentrator (Centricon, Millipore), dialyzed against Biacore buffer (10 mM HEPES (pH 7.4), 150 mM NaCl, 0.05 mM EDTA, and 0.005% (w/v) Polysorbate 20) and stored at 4° C. for <48 hours before use. Binding assays were performed at 25° C. on a Biacore 3000 biosensor after proteins were immobilized on a CMS chip (GE Healthcare). Ligands were injected at 30 μL/minute for 1 minute in Biacore buffer. Bound protein was allowed to dissociate in Biacore buffer at 30 μL/minute for 10 minutes and then desorbed with 2 M MgCl2. Binding kinetics were derived using BIA evaluation software (Biacore, Uppsala, Sweden).
A general note: Surface plasmon resonance follows binding to a sensor surface in real time, without labels.

For data set [7], the system named is Jurkat T cells stably expressing eGFP. The data set is described as follows: Apoptosis and marker loss in Jurkat T cells stably expressing eGFP treated with CPT. The data set is classed as cell-based. The method, then: FIGS. 12A-12G. Apoptotic cell death is associated with loss of protein and mRNA markers. Jurkat T cells stably expressing eGFP were treated with DMSO or CPT and assessed for cell viability by ATP content (FIG. 12A) and light scatter (FIG. 12B) over time. FIG. 12C, Expression of eGFP was measured by flow cytometry. FIG. 12D, Actin mRNA expression was assessed by qRT-PCR and expressed as mean Ct values normalized to baseline DMSO control. FIGS. 12E-12G, Cell death was assessed by active-caspase 3 expression (FIG. 12E), TUNEL (FIG. 12F), and LIVE/DEAD viability stain (FIG. 12G) and compared between eGFP positive and eGFP negative cells. FIG. 12A-12D values represent mean (range) of two independent experiments. FIGS. 12E-12G are representative of two independent experiments.
If BCL-2 neutralizes Casp8p41, then antagonizing BCL-2 should augment Casp8p41-induced killing, including when Casp8p41 is generated by latently HIV infected cells that reactivate the virus. Before testing this possibility, whether select markers (protein or nucleic acid based) remain detectable was first assessed when the cell of interest is undergoing death. Jurkat T cells stably expressing eGFP were treated with vehicle control or the cytotoxic quinolone alkaloid CPT to induce apoptosis, then examined for expression of eGFP (as a prototypic cytoplasmic protein) and actin mRNA (as a prototypic mRNA) over time.

On to `CC1(C)CCC(CN2CCN(c3ccc(C(=O)NS(=O)(=O)c4ccc(NCC5CCOCC5)c([N+](=O)[O-])c4)c(Oc4cnc5[nH]ccc5c4)c3)CC2)=C(c2ccc(Cl)cc2)C1` [venetoclax], for which the “increase in cell death, mean difference vs diluent” value in the data set on Jurkat T cells came out at 25.7±10.3%. In data set [1], the “viability, mean difference vs control treated cells” value is reported as −7.2±4.8%. Also, the “mean difference in percent CFSE low cells” value in data set [2] was -1.1±7.9%. The “viability, mean difference vs DMSO control” value in [3] is listed as −4.7±1.6 % viable. Further, the “survival or mitogen-induced proliferation of mock-infected CD4 T cells” value in the data set on HIV-1IIIb is “had no effect”. The “samples exhibiting a decrease of cell associated HIV DNA” value in data set [4] (freshly isolated primary CD4 T cell samples, 8 of 11) is 73%. For the same compound, the “median cell death (active caspase 3) in p24− cells” value in data set [4] (αCD3/αCD28 reactivated, control 2.5%, P=0.189) is 10.3%. In addition, the “proportion of HIV p24+ CD4+ cells that are active caspase 3+” value in data set [4] (αCD3/αCD28 reactivated, control 23%, P=0.026) was 47 % active caspase 3+. Besides, in data set [5], the peak plasma levels result is “up to 5 μM”. The “cases of dose limiting neutropenia” value in data set [6] (40 NHL patients receiving monotherapy) was 2 cases. Moreover, the “tolerability in early phase clinical trials” value in data set [6] (human, in vivo) is “well tolerated”.

“DMNLLDIFIEMEKRVILGEGKLDILKRVCAQ (Casp8p41 BH3-like peptide) [Casp8p41 activator peptide]”: the “decrease of affinity of Bcl-2 by substitution of Ala for Bcl-2 Arg146” value in the data set on Bcl-2 is recorded as 250 fold.

With `CC[C@@]1(O)C(=O)OCc2c1cc1n(c2=O)Cc2cc3ccccc3nc2-1` [CPT, camptothecin], in [7] (by 48 hours), the eGFP negative cells is reported as 97%. In addition, in data set [7] (compared to diluent-treated cells), the “cell viability by cellular ATP content and light scatter” value is “decreased cell viability”. Besides, the “reduction of detectable actin message compared to diluent control” value in [7] (qRT-PCR) came to 34%. In addition, in data set [7] ({}), the “detectable eGFP (eGFP+ cells)” value is on record as 17 % eGFP+.
